Experimental data published in patent publication US6667387B1, “HCV core peptides” (priority 1992, dated 2003).
* marks the point of attachment. Biotin = O=C1N[C@H]2[C@H](CS[C@H]2CCCCC(=O)*)N1

Experiments:
[1] = test system: antibodies in sera from HCV-seropositive donors; experiment: ELISA with HCV antibody-positive sera (biotinylated peptides on streptavidin- or avidin-coated plates, unbiotinylated peptides coated directly); type: binding, human; settings: for PEPTIDE ELISA (O.D.): Table 12, biotinylated 20-mers
Procedure: (§1) Where peptides were to be coated directly, stock solutions of the peptides were diluted in sodium carbonate buffer, pH 9.6 and used to coat polystyrene microtiter plates at a peptide concentration of 2 to 5 micrograms per milliliter for 1 hour at 37° C.
(§2) In cases where biotinylated peptides were to be evaluated, plates were first coated with streptavidin in sodium carbonate buffer, pH 9.6 at a concentration of 3 micrograms per milliliter for 1 hour at 37° C. The plates were then washed to remove excess, unbound protein. A working solution of the biotinylated peptide at 1 microgram per milliliter in sodium carbonate buffer was then added to the wells of the microtiter plate and incubated for 1 hours at 37° C.
(§3) Once the plates had been coated with antigen, any remaining free binding sites on the plastic were blocked with casein. After washing, a dilution of the appropriate antisera, usually 1:100, was added to the wells of the plates and incubated for 1 hour at 37° C.
(§4) After washing to remove unbound material, specific antibody binding was detected by incubating the plates with goat anti-human immunoglobulin antibodies conjugated to the enzyme horseradish peroxidase. Following removal of unbound conjugate by washing, a solution containing H2O2 and 3,3′,5,5′-tetramethylbenzidine was added.
(§5) Reactions were stopped after a suitable interval by addition of sulfuric acid. […] Absorbance measurements were made at a wavelength of 450 nanometers and all data are expressed as an optical density value at this wavelength.
The unbiotinylated peptides were adsorbed onto the wells of polystyrene microtiter plates at a concentration of 3 micrograms per milliliter.
The biotinylated peptides were bound at a concentration of 1 microgram per milliliter to streptavidin-coated microtiter plates. Sera known to contain antibodies to these peptides were used for the evaluation and were tested at a 20-fold dilution.
To investigate further the enhanced antibody recognition of biotinylated HCV peptides bound to streptavidin or avidin as compared to direct adsorption on plastic, the influence of peptide coating concentration was investigated. Three peptides (HCV peptides II, XI, and XVI) were coated in concentrations ranging from 10 nanograms per milliliter to 3 micrograms per milliliter in a volume of 200 microliters per microtiter plate well. For direct coating, the unbiotinylated versions of these peptides were used. The biotinylated versions of these peptides were used to coat wells to which streptavidin had previously been adsorbed. Sera known to contain antibodies to these peptides were used at a dilution of 1 to 100 to evaluate the magnitude of antibody binding.
(§6) Unbiotinylated HCV peptide I was coated directly onto the wells of a polystyrene ELISA plate at a concentration of 3 micrograms per milliliter in sodium carbonate buffer, pH 9.6. Biotinylated HCV peptide I was bound to streptavidin-coated wells using a stock solution containing the peptide at a concentration of 1 microgram per milliliter. The resulting plates were then incubated in parallel with a panel of sera from HCV-seropositive donors. […] Two of the sera (8326 and 8244) recognize the biotinylated version of this peptide far better than the unbiotinylated version. The specificity of the antibody reaction is also reflected by the low optical density values obtained for 5 serum samples from uninfected donors (F88, F89, F76, F136, and F6).
To determine how well biotinylated peptides would function in a mixture when bound to streptavidin- or avidin-coated plates, two mixtures were made of the N-terminally biotinylated versions of the HIV-1 peptides TM-HIV-1 (hereabove referred to as 1a.1) and V3-nm (hereabove referred to as 1b.4), the HIV-2 peptide TM-HIV-2 (hereabove referred to as 2a), and the hepatitis C virus peptides II, IX, and XVIII. […]

[2] = ELISA with seronegative / negative control sera (specificity); type: binding, human
Procedure: as §1, §2, §3, §4, §5, §6
To determine how well biotinylated peptides would function in a mixture when bound to streptavidin- or avidin-coated plates, two mixtures were made of the N-terminally biotinylated versions of the HIV-1 peptides TM-HIV-1 (hereabove referred to as 1a.1) and V3-nm (hereabove referred to as 1b.4), the HIV-2 peptide TM-HIV-2 (hereabove referred to as 2a), and the hepatitis C virus peptides II, IX, and XVIII. Mixture A contained each of the six biotinylated peptides at a concentration of 1 microgram per milliliter (6 micrograms per milliliter peptide, total) while in mixture B, each peptide was present at a concentration of 0.1 microgram per milliliter (0.6 microgram per milliliter peptide, total). The individual peptides were coated at a concentration of 1 microgram per milliliter. For purposes of comparison, mixtures A and B were also coated directly onto the wells of a microtiter plate. Samples from HIV-1, HIV-2, and HCV-seropositive donors were tested and compared to sera from seronegative blood donors. A cut-off absorbance value of 0.250 was used to determine whether a reaction was positive or negative. Absorbance values equal or greater than 0.250 were considered positive while absorbance values below this value were considered negative.

[3] = Table 4B, serum 1, 20-fold dilution
[4] = Table 4B, serum 2, 20-fold dilution
[5] = Table 4B, serum 6, 20-fold dilution
[6] = Table 4B, serum 8, 20-fold dilution
[7] = Table 4B, serum 10, 20-fold dilution
[8] = Table 4B, serum 26, 20-fold dilution
[9] = Table 4B, serum 83, 20-fold dilution
[10] = Table 4B, serum 88, 20-fold dilution
[11] = Table 4B, serum 89, 20-fold dilution
[12] = Table 4B, serum 91, 20-fold dilution
[13] = Table 4B, serum 95, 20-fold dilution
[14] = Table 4B, serum 99, 20-fold dilution
[15] = Table 4B, serum 100, 20-fold dilution
[16] = Table 4B, serum 104, 20-fold dilution
[17] = Table 4B, serum 105, 20-fold dilution
[18] = Table 4B, serum 110, 20-fold dilution
[19] = Table 4B, serum 111, 20-fold dilution
[20] = Table 4B, serum 112, 20-fold dilution
[21] = Table 4B, serum 113, 20-fold dilution
[22] = Table 4B, serum 116, 20-fold dilution
[23] = Table 4B, serum 120, 20-fold dilution
[24] = Table 4B, serum 266, 20-fold dilution
[25] = Table 4B, serum 8247, 20-fold dilution
[26] = Table 4B, serum 11476, 20-fold dilution
[27] = Table 4B, serum 24758, 20-fold dilution

H2N-Met-Ser-Thr-Ile-Pro-Lys-Pro-Gln-Arg-Lys-Thr-Lys-Arg-Asn-Thr-Asn-Arg-Arg-Pro-Gln-Gly-Gly-Lys (Bio)-CONH2 (H-MSTIPKPQRKTKRNTNRRPQGGK(Biotin)-NH2; SMILES CC[C@H](C)[C@H](NC(=O)[C@@H](NC(=O)[C@H](CO)NC(=O)[C@@H](N)CCSC)[C@@H](C)O)C(=O)N1CCC[C@H]1C(=O)N[C@@H](CCCCN)C(=O)N1CCC[C@H]1C(=O)N[C@@H](CCC(N)=O)C(=O)N[C@@H](CCCNC(=N)N)C(=O)N[C@@H](CCCCN)C(=O)N[C@H](C(=O)N[C@@H](CCCCN)C(=O)N[C@@H](CCCNC(=N)N)C(=O)N[C@@H](CC(N)=O)C(=O)N[C@H](C(=O)N[C@@H](CC(N)=O)C(=O)N[C@@H](CCCNC(=N)N)C(=O)N[C@@H](CCCNC(=N)N)C(=O)N1CCC[C@H]1C(=O)N[C@@H](CCC(N)=O)C(=O)NCC(=O)NCC(=O)N[C@@H](CCCCNC(=O)CCCC[C@@H]1SC[C@@H]2NC(=O)N[C@@H]21)C(N)=O)[C@@H](C)O)[C@@H](C)O) [HCV peptide I carboxy-biotinylated]
optical density (450 nm) ([1]; Table 7, serum 6378, HCV antibody-positive): 2.531 | optical density (450 nm) ([1]; Table 7, serum 8242, HCV antibody-positive): 2.389 | optical density (450 nm) ([1]; Table 7, serum 8243, HCV antibody-positive): 2.541 | optical density (450 nm) ([1]; Table 7, serum 8244, HCV antibody-positive): 1.399 | optical density (450 nm) ([1]; Table 7, serum 8248, HCV antibody-positive): 2.493 | optical density (450 nm) ([1]; Table 7, serum 8316, HCV antibody-positive): 2.541 | optical density (450 nm) ([1]; Table 7, serum 8318, HCV antibody-positive): 2.404 | optical density (450 nm) ([1]; Table 7, serum 8320, HCV antibody-positive): 2.762 | optical density (450 nm) ([1]; Table 7, serum 8326, HCV antibody-positive): 1.775 | optical density (450 nm) ([1]; Table 7, serum 8329, HCV antibody-positive): 2.672 | optical density (450 nm) ([1]; Table 7, serum 8330, HCV antibody-positive): 2.651 | optical density (450 nm) ([1]; Table 7, serum 8333, HCV antibody-positive): 2.545 | optical density (450 nm) ([1]; Table 7, serum 8334, HCV antibody-positive): 2.549 | optical density (450 nm) ([1]; Table 7, serum 8336, HCV antibody-positive): 2.016 | optical density (450 nm) ([1]; Table 7, serum 8344, HCV antibody-positive): 2.010 | optical density (450 nm) ([1]; Table 7, serum 8364, HCV antibody-positive): 2.705 | optical density (450 nm) ([1]; Table 7, serum 8374, HCV antibody-positive): 2.151 | optical density (450 nm) ([1]; Table 7, serum 8387, HCV antibody-positive): 2.628 | optical density (450 nm) ([2]; Table 7, serum F8, HCV antibody-negative): 0.000 | optical density (450 nm) ([2]; Table 7, serum F76, HCV antibody-negative): 0.022 | optical density (450 nm) ([2]; Table 7, serum F88, HCV antibody-negative): 0.026 | optical density (450 nm) ([2]; Table 7, serum F89, HCV antibody-negative): 0.001 | optical density (450 nm) ([2]; Table 7, serum F136, HCV antibody-negative): 0.002

Leu-Arg-Lys-Ser-Arg-Arg-Phe-Ala-Gln-Ala-Leu-Pro-Val-Trp-Ala-Arg-Pro-Asp-Tyr-Asn [Peptide XVI] (LRKSRRFAQALPVWARPDYN; printed: Leu-Arg-Lys-Ser-Arg-Arg-Phe-Ala-Gln-Ala-Leu-Pro-Val-Trp-Ala-Arg-Pro-Asp-Tyr-Asn)
optical density (450 nm) [1, 3]: 2.435 | optical density (450 nm) [1, 4]: 1.239 | optical density (450 nm) [1, 5]: 1.595 | optical density (450 nm) [1, 6]: 1.599 | optical density (450 nm) [1, 7]: 2.847 | optical density (450 nm) [1, 8]: 1.522 | optical density (450 nm) [1, 9]: 2.221 | optical density (450 nm) [1, 10]: 2.519 | optical density (450 nm) [1, 11]: 1.530 | optical density (450 nm) [1, 12]: 2.169 | optical density (450 nm) [1, 13]: 1.484 | optical density (450 nm) [1, 14]: 2.045 | optical density (450 nm) [1, 15]: 1.637 | optical density (450 nm) [1, 16]: 0.942 | optical density (450 nm) [1, 17]: 2.186 | optical density (450 nm) [1, 18]: 1.484 | optical density (450 nm) [1, 19]: 1.465 | optical density (450 nm) [1, 20]: 1.084 | optical density (450 nm) [1, 21]: 2.535 | optical density (450 nm) [1, 22]: 1.918 | optical density (450 nm) [1, 23]: 2.332 | optical density (450 nm) [1, 24]: 2.262 | optical density (450 nm) [1, 25]: 0.618 | optical density (450 nm) [1, 26]: 2.197 | optical density (450 nm) [1, 27]: 0.062 | PEPTIDE ELISA (O.D.) ([1]; serum 0843): 1.444 | PEPTIDE ELISA (O.D.) ([1]; serum 8240): 0.388 | PEPTIDE ELISA (O.D.) ([1]; serum 8241): 2.456 | PEPTIDE ELISA (O.D.) ([1]; serum 8242): 2.318 | PEPTIDE ELISA (O.D.) ([1]; serum 8332): 2.130 | PEPTIDE ELISA (O.D.) ([1]; serum 8339): 2.859 | PEPTIDE ELISA (O.D.) ([1]; serum 8350): 2.249 | PEPTIDE ELISA (O.D.) ([1]; serum 8377): 2.336 | PEPTIDE ELISA (O.D.) ([1]; serum 8378): 1.602 | PEPTIDE ELISA (O.D.) ([1]; serum 8388): 0.390 | optical density (450 nm) ([2]; Table 4B, negative serum): 0.067

Leu-Arg-Lys-Ser-Arg-Arg-Phe-Ala-Gln-Ala-Leu-Pro-Val-Trp-Ala-Arg-Pro-Asp-Tyr-Asn [Unbiotinylated peptide XVI] (LRKSRRFAQALPVWARPDYN; printed: Leu-Arg-Lys-Ser-Arg-Arg-Phe-Ala-Gln-Ala-Leu-Pro-Val-Trp-Ala-Arg-Pro-Asp-Tyr-Asn)
optical density (450 nm) [1, 3]: 1.038 | optical density (450 nm) [1, 4]: 0.616 | optical density (450 nm) [1, 5]: 0.100 | optical density (450 nm) [1, 6]: 0.329 | optical density (450 nm) [1, 7]: 1.033 | optical density (450 nm) [1, 8]: 0.053 | optical density (450 nm) [1, 9]: 0.912 | optical density (450 nm) [1, 10]: 1.187 | optical density (450 nm) [1, 11]: 0.495 | optical density (450 nm) [1, 12]: 0.197 | optical density (450 nm) [1, 13]: 0.109 | optical density (450 nm) [1, 14]: 0.814 | optical density (450 nm) [1, 15]: 0.474 | optical density (450 nm) [1, 16]: 0.205 | optical density (450 nm) [1, 17]: 0.313 | optical density (450 nm) [1, 18]: 0.762 | optical density (450 nm) [1, 19]: 0.193 | optical density (450 nm) [1, 20]: 0.253 | optical density (450 nm) [1, 21]: 0.833 | optical density (450 nm) [1, 22]: 0.058 | optical density (450 nm) [1, 23]: 0.964 | optical density (450 nm) [1, 24]: 0.712 | optical density (450 nm) [1, 25]: 0.059 | optical density (450 nm) [1, 26]: 0.068 | optical density (450 nm) [1, 27]: 0.071 | optical density (450 nm) ([2]; Table 4B, negative serum): 0.063
